Reference: US20040023862A1, “Uses of bombesin receptor 3” (SmithKline Beedham p. l. c., priority 2000, published 2004)
Non-standard residues stand in square brackets, D forms with d. Residues, ends and D or L forms follow the SMILES beside them. Nle = CCCC[C@H](N)C(=O)O; βAla = NCCC(=O)O

Key:
BB2 receptor = BB2 receptor (Homo sapiens, UniProt P30550); conditions: from Smart (1998); cited from earlier work
BB1 receptor = BB1 receptor (Homo sapiens, UniProt P28336); conditions: from Smart (1998); cited from earlier work
[1] = target: T1, endogenous human BRS-3 in NCI-N417 cells (Homo sapiens, UniProt P32247); test: Agonist pharmacology, FLIPR intracellular calcium (Fluo-3AM) in NCI-N417 cells; assay type: cell-based
T1 construct: Agonist Pharmacology at the Endogenous Human BRS-3 in NCI-N417 Cells; endogenous in cells; host or cells: NCI-N417 cells
T1 sequence (P32247 1-399): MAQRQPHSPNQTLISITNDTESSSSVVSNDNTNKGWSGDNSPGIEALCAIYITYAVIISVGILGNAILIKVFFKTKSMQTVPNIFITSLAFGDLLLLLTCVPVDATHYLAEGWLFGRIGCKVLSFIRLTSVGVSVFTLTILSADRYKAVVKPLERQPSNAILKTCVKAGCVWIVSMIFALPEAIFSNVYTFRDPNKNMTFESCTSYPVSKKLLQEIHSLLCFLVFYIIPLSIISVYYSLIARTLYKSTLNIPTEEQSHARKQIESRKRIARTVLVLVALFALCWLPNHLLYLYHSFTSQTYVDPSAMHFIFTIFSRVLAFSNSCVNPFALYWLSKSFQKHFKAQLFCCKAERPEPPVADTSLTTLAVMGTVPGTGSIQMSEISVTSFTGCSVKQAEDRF
Method: Agonist Pharmacology at the Endogenous Human BRS-3 in NCI-N417 Cells
NCI-N417 cells were seeded into Costar 96 well black walled plates (30,000 cells per well), cultured overnight in RPMI 1640 medium containing 10% foetal calf serum and 1% L-glutamine, and then loaded with the cytoplasmic calcium indicator Fluo-3AM (4 μM) in the presence of 2.5 mM probenecid at 37° C. for 60 min. The cells were then washed 4× with, and finally resuspended in, Tyrode's medium containing 2.5 mM probenecid. Fluorescence was then monitored using a FLIPR (λEX=488 nm, λEM=540 nm) before and after the addition of various ligands (10 pM-10 μM), as described previously (Smart et al (1999). Br. J. Pharmacol. 128:1-4).

cerebellar granule cells = test: Glutamate-induced excitotoxicity in cerebellar granule cells; assay type: cell-based
From the text: However, in the cerebellar granule cells [D-Phe^6, βAla^11, Phe^13, Nle^14]Bombesin(6-14) had no effect on glutamate-induced excitotoxicity.

BRS3 = target: T2, BRS3 (Homo sapiens, UniProt P32247); conditions: background statement, in words; cited from earlier work
T2 sequence (P32247 1-399): T1 sequence (P32247 1-399)

hippocampal neurones = test: Neurotoxicity assay (MTT cell survival) in primary hippocampal cell culture; assay type: cell-based, rat; conditions: sub-maximal neurotoxicity by Mg-free Locke's solution with glycine and histamine, MTT 24 h after insult
Method: Hippocampi were isolated from embryonic Sprague Dawley rats (gestational age 17.5 days; Charles River), incubated with 0.08% (w/v) trypsin, and dissociated in Neurobasal medium containing 10% heat-inactivated fetal calf serum (Skaper et al.(1990) Methods in Neurosciences, Vol. 2 (Conn P. M., ed), pp. 17-33 Academic Press, San Diego). Cells were pelleted by centrifugation (200 g, 5 min) and resuspended in Neurobasal medium containing B27 supplements (with antioxidants), 25 μM glutamate, 1 mM sodium pyruvate, 2 mM L-glutamine, 50 U/ml penicillin, and 50 μg/ml streptomycin. The cell suspension was plated onto poly-D-lysine (10 μg/ml) coated 48-well culture plates (Nunc), at a density of 4.5×10^4 cells per cm^2. Cultures were maintained at 37° C. in a humidified atmosphere of 5% CO2-95% air. […]
Cultures were washed once with Locke's solution (pH 7.0-7.4) (Skaper et al. (1990) supra) with or without 1 mM magnesium chloride (MgCl2). […] Cell survival was quantified 24 h after the insult by a colorimetric reaction with 3-(4,5-dimethylthiazol-2-yl)-2,5-diphenyltetrazolium bromide (MTT) (Mosmann (1983) J. Immunol. Methods 65:55-63; Manthorpe et al. (1986) Dev. Brain Res. 25:191-198; Skaper et al., (1990) supra). Absolute MTT values obtained were normalized and expressed as a percentage of sham-treated sister cultures (defined as 100%).

[2] = tested on: organotypic hippocampal slice cultures; test: Oxygen/glucose deprivation model in organotypic hippocampal slice cultures; assay type: cell-based

Sequence of BB2 receptor (P30550 whole entry): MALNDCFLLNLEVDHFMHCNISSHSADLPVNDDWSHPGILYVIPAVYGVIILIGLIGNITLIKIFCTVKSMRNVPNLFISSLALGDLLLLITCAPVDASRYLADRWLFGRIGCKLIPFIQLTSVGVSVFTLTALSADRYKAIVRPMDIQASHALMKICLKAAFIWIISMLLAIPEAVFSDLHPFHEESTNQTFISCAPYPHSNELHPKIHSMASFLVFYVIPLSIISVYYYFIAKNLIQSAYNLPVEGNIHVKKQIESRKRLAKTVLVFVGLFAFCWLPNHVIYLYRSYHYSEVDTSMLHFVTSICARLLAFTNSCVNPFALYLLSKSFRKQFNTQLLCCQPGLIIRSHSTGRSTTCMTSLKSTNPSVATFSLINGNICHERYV
Sequence of BB1 receptor (P28336 whole entry): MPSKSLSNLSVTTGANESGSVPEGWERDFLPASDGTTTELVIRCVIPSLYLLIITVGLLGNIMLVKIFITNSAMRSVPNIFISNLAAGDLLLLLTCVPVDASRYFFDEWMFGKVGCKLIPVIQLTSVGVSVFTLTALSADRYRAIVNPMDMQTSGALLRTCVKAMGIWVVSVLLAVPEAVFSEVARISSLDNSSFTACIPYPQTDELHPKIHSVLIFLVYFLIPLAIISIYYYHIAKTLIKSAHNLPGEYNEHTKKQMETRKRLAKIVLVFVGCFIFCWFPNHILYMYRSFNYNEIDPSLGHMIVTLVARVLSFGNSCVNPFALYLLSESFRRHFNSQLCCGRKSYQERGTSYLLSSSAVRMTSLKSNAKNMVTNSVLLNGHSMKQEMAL

Row | Compound | activity at the BB2 receptor (BB2 receptor) | affinity at the BB1 receptor (BB1 receptor) | EC50 [1] | Efficacy ([1]; calcium mobilisation, FLIPR, NCI-N417 cells, efficacy in words) | effect on glutamate-induced excitotoxicity (cerebellar granule cells) | affinity at BRS3 (BRS3) | pEC50 for inhibition of damage (hippocampal neurones) | neuroprotection [2]
1 | CC(C)c1cccc(C(C)C)c1NC(=O)N[C@@](C)(Cc1c[nH]c2ccccc12)C(=O)NCC1(c2ccccn2)CCCCC1 [PD 165929] | inactive | 7.6 nM |  |  |  |  |  | 
2 | CCCC[C@H](NC(=O)[C@H](Cc1ccccc1)NC(=O)[C@H](Cc1c[nH]cn1)NC(=O)CCNC(=O)[C@@H](NC(=O)[C@H](C)NC(=O)[C@H](Cc1c[nH]c2ccccc12)NC(=O)[C@H](CCC(N)=O)NC(=O)[C@H](N)Cc1ccccc1)C(C)C)C(N)=O [[D-Phe^6, βAla^11, Phe^13, Nle^14]Bombesin(6-14)] (H-[dF]QWAV[βAla]HF[Nle]-NH2; N-terminus and C-terminus assumed) |  |  | 13.2 nM | full | no effect | low nM affinity | 7.3±0.1 | neuroprotective
